pIC50: −log10 of the molar value.
The molecules below were run against Cyclin-dependent kinase 2 (Homo sapiens, UniProt P24941) (assay: not given).

SMILES | pIC50
CCCC(=O)Nc1n[nH]c2c(F)c(Cl)c(-c3ccccc3)cc12 | 5.50
CCCC(=O)Nc1n[nH]c2c(Cl)c(Cl)c(-c3ccccc3)cc12 | < 5.00

Each molecule was assayed against Cyclin-dependent kinase 1 (Homo sapiens, UniProt P06493) (assay: Inhibition of Cdk1).
Cyclin-dependent kinase 1, sequence (P06493 whole entry): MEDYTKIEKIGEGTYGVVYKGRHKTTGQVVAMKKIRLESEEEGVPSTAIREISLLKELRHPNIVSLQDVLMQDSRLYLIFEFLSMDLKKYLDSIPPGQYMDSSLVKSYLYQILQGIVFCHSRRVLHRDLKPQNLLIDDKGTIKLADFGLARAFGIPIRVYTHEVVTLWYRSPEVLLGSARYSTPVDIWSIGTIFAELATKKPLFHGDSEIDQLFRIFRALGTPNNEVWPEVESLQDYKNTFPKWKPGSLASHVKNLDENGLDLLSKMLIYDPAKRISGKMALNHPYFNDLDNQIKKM

SMILES | pIC50
CCCC(=O)Nc1n[nH]c2c(F)c(Cl)c(-c3ccccc3)cc12 | 5.60
CCCC(=O)Nc1n[nH]c2cc(Cl)c(-c3ccccc3)cc12 | 7.00

What follows are molecules tested against Aurora kinase A (Homo sapiens) (UniProt O14965) (assay: Inhibition of Aurora kinase 2).
Aurora kinase A (Homo sapiens), sequence (O14965 whole entry, looked up): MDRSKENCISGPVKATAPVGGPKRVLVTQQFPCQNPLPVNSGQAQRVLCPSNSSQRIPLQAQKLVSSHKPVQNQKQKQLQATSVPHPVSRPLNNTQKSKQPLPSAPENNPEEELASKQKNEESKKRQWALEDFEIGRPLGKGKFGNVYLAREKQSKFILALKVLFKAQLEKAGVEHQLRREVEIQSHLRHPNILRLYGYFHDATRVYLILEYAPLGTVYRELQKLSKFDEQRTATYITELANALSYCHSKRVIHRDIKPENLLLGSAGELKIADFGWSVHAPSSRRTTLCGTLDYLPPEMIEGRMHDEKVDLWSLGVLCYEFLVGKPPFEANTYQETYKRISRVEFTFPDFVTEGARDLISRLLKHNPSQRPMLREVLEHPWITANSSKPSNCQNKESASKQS

SMILES | pIC50
CCCC(=O)Nc1n[nH]c2cc(-c3ccc(O)cc3)ccc12 | < 4.52

Each molecule was assayed against Microtubule-associated protein tau (Rattus norvegicus, UniProt P19332) (assay: Inhibition of Tau phosphorylation in rat cerebral cortex after 120 mins by chemiluminescence assay).
Format: tissue-based

Microtubule-associated protein tau, sequence (P19332 whole entry): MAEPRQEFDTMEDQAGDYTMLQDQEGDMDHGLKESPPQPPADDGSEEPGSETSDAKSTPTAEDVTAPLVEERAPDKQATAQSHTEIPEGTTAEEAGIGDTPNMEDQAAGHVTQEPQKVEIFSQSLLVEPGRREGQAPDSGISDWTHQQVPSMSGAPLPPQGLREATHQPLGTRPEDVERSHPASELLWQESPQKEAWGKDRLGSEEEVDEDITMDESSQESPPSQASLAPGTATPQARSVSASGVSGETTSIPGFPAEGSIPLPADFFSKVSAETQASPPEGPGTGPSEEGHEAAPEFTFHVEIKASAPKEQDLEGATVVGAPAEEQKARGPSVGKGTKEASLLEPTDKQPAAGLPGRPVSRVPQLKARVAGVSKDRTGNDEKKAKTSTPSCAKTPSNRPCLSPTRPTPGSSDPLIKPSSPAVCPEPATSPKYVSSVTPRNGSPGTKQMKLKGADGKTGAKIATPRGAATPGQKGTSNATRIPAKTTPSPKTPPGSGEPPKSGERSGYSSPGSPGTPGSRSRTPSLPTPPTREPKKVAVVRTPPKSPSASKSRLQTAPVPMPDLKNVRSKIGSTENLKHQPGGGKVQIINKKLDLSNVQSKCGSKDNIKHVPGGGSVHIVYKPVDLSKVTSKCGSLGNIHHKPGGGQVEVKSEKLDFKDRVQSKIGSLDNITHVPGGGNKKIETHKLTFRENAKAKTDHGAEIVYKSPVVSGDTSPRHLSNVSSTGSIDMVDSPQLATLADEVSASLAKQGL

SMILES | pIC50
CCCC(=O)Nc1n[nH]c2c(F)c(Cl)c(-c3ccccc3)cc12 | 6.60
CCCC(=O)Nc1n[nH]c2cc(Cl)c(-c3ccccc3)cc12 | 6.40

These molecules were tested against Glycogen synthase kinase-3 beta (Homo sapiens, UniProt P49841) (assay: Inhibition of human recombinant GSK3-beta using gamma[33P]-ATP after 30 mins by scintillation proximity assay).
Glycogen synthase kinase-3 beta, sequence (P49841 whole entry): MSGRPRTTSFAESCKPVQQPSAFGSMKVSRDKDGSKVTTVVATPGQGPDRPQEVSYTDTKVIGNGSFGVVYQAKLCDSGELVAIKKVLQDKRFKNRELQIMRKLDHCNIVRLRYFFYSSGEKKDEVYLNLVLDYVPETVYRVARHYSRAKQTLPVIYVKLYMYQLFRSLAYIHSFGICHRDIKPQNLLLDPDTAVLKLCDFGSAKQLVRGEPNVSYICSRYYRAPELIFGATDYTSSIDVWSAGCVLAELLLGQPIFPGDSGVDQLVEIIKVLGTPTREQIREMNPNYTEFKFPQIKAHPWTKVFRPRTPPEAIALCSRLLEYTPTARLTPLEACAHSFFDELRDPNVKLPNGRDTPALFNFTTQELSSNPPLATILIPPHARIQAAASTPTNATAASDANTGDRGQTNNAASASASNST

SMILES | pIC50
CCCC(=O)Nc1n[nH]c2cc(Cl)c(-c3ccc(CC)cc3)cc12 | 7.92
CCCC(=O)Nc1n[nH]c2cc(Cl)c(-c3ccoc3)cc12 | 7.96
CCCC(=O)Nc1n[nH]c2cc(Cl)c(-c3ccncc3)cc12 | 7.30
CCCC(=O)Nc1n[nH]c2cc(-c3ccc(O)cc3)c(-c3ccoc3)cc12 | 7.01
CCCC(=O)Nc1n[nH]c2cc(-c3ccc(Oc4ccccc4)cc3)c(-c3ccc(Oc4ccccc4)cc3)cc12 | < 5.00
CCCC(=O)Nc1n[nH]c2cc(-c3ccc(SC)cc3)ccc12 | 5.14
CCCC(=O)Nc1n[nH]c2cc(Cc3ccccc3)ccc12 | 5.38
CCCC(=O)Nc1n[nH]c2cc(-c3ccc(CC)cc3)ccc12 | < 4.00
CCCC(=O)Nc1n[nH]c2cc(-c3ccc(C(F)(F)F)cc3)ccc12 | 4.98
CCCC(=O)Nc1n[nH]c2cc(Cl)ccc12 | 6.45
CCCC(=O)Nc1n[nH]c2cc(-c3ccc(O)c(O)c3)ccc12 | 7.57
CCCC(=O)Nc1n[nH]c2cc(-c3ccc(O)cc3)ccc12 | 7.36
CCCC(=O)Nc1n[nH]c2cc(-c3ccsc3)ccc12 | 6.03
CCCC(=O)Nc1n[nH]c2cc(-c3ccc(N)nc3)ccc12 | 5.96
CCCC(=O)Nc1n[nH]c2cc(-c3ccc4c(c3)COO4)ccc12 | 4.60
CCCC(=O)Nc1n[nH]c2cc(-c3ccc([N+](=O)[O-])cc3)ccc12 | < 4.00
O=C(O)CCC(=O)Nc1n[nH]c2cc(Cl)ccc12 | 5.93
CCCC(=O)Nc1n[nH]c2cc(-c3ccc(F)cc3)ccc12 | 5.30
CCCC(=O)Nc1n[nH]c2cc(-c3cc(Cl)cc(Cl)c3)ccc12 | 5.27

SMILES | pIC50
CCCC(=O)Nc1n[nH]c2cc(-c3ccc(OC(F)(F)F)cc3)ccc12 | 5.26
CCCC(=O)Nc1n[nH]c2cc(CCc3ccccc3)ccc12 | 5.07
Cc1ccc(-c2ccc3c(NC(=O)CCC(=O)O)n[nH]c3c2)cc1 | 4.77
N#Cc1ccc(-c2ccc3c(NC(=O)CCC(=O)O)n[nH]c3c2)cc1 | 4.69
CCCC(=O)Nc1n[nH]c2cc(-c3ccc(N(C)C)cc3)ccc12 | 4.91
CCCC(=O)Nc1n[nH]c2cc(-c3ccc(O)nc3)ccc12 | 4.78
CCCC(=O)Nc1n[nH]c2cc(-c3ccc(OCc4ccccc4)cc3)ccc12 | 5.93
CCCC(=O)Nc1n[nH]c2cc(-c3ccccc3)ccc12 | 5.89
CCCC(=O)Nc1n[nH]c2cc(-c3ccccc3Cl)ccc12 | 5.87
C/C=C/c1ccc2c(NC(=O)CCC)n[nH]c2c1 | 5.61
CCCC(=O)Nc1n[nH]c2cc(-c3ccc(OC)cc3)ccc12 | < 4.00
CCCC(=O)Nc1n[nH]c2cc(-c3ccc(Cl)cc3)ccc12 | < 4.00
CCCC(=O)Nc1n[nH]c2c(F)c(Cl)c(-c3ccccc3)cc12 | 8.22
CCCC(=O)Nc1n[nH]c2cc(-c3ccc(N)cc3)ccc12 | 7.12
CCCC(=O)Nc1n[nH]c2cc(-c3cccc(O)c3)ccc12 | 7.03
CCCC(=O)Nc1n[nH]c2cc(C(F)(F)F)ccc12 | 6.71
CCCC(=O)Nc1n[nH]c2cc(Br)ccc12 | 6.70
CCCC(=O)Nc1n[nH]c2cc(-c3ccoc3)ccc12 | 6.59
CCCC(=O)Nc1n[nH]c2cc(-c3ccncc3)ccc12 | 6.18

SMILES | pIC50
CCCC(=O)Nc1n[nH]c2cc(-c3ccc(O)cc3Cl)ccc12 | 7.26
CCCC(=O)Nc1n[nH]c2cc(-c3ccc(O)cc3)c(-c3ccco3)cc12 | 7.85
CCCC(=O)Nc1n[nH]c2cc(Cl)c(-c3ccc([N+](=O)[O-])cc3)cc12 | 7.74
CCCC(=O)Nc1n[nH]c2cc(Cl)c(-c3ccc(F)cc3)cc12 | 7.66
CCCC(=O)Nc1n[nH]c2cc(Cl)c(-c3ccc(OCc4ccccc4)cc3)cc12 | 7.64
CCCC(=O)Nc1n[nH]c2cc(-c3ccc(O)cc3)c(-c3cccnc3)cc12 | 6.83
CCCC(=O)Nc1n[nH]c2cc(-c3ccc(O)cc3)c(-c3ccc(CC)cc3)cc12 | 7.31
CCCC(=O)Nc1n[nH]c2cc(-c3ccc(O)cc3)c(-c3ccc(O)cc3)cc12 | 7.25
CCCC(=O)Nc1n[nH]c2cc(-c3ccc(O)cc3)c(-c3ccccc3)cc12 | 7.26
CCCC(=O)Nc1n[nH]c2cc(-c3ccccc3)c(-c3ccccc3)cc12 | 5.76
CCCC(=O)Nc1n[nH]c2cc(-c3ccc(O)cc3)c(Br)cc12 | 8.30
CCCC(=O)Nc1n[nH]c2cc(-c3cc(F)cc(F)c3)ccc12 | 5.54
CCCC(=O)Nc1n[nH]c2cc(-c3ccc(C(C)(C)C)cc3)ccc12 | 5.42
CCCC(=O)Nc1n[nH]c2cc(Cl)c(-c3ccccc3)cc12 | 8.15
CCCC(=O)Nc1n[nH]c2cc(Cl)c(-c3ccc(N)cc3)cc12 | 8.10
CCCC(=O)Nc1n[nH]c2cc(Cl)c(-c3ccc(O)cc3)cc12 | 8.00
CCCC(=O)Nc1n[nH]c2c(Cl)c(Cl)c(-c3ccccc3)cc12 | 7.92
CCCC(=O)Nc1n[nH]c2cc(Cl)c(-c3ccc(C)cc3)cc12 | 7.85
